Data set [1] has as its target T1, Glucocorticoid receptor (Rattus norvegicus, UniProt P06536).
T1 sequence (P06536 whole entry): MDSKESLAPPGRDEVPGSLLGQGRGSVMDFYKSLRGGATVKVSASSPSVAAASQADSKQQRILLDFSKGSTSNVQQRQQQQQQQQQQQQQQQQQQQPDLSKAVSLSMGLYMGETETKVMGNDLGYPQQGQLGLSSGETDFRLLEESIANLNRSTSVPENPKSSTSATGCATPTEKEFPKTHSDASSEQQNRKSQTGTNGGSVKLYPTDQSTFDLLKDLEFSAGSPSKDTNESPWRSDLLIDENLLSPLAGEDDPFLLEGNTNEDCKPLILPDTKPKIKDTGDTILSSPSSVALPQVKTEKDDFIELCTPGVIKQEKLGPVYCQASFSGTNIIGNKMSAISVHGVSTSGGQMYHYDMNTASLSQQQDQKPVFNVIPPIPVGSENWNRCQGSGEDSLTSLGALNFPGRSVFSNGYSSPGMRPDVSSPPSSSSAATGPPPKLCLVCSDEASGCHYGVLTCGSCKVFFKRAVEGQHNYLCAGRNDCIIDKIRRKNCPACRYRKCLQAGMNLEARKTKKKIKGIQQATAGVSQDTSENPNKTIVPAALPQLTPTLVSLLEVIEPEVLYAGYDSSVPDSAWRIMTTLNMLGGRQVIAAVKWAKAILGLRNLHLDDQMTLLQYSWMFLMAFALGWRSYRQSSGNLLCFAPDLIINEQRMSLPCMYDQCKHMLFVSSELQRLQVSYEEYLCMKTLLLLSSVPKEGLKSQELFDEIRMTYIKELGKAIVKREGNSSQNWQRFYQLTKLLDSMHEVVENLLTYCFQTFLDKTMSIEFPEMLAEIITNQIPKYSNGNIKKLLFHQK
Description: Inhibition of [3H]dexamethasone binding to rat glucocorticoid receptor.

Data set [2] has as its target T2, Glucocorticoid receptor (Homo sapiens, UniProt P04150).
T2 sequence (P04150 whole entry): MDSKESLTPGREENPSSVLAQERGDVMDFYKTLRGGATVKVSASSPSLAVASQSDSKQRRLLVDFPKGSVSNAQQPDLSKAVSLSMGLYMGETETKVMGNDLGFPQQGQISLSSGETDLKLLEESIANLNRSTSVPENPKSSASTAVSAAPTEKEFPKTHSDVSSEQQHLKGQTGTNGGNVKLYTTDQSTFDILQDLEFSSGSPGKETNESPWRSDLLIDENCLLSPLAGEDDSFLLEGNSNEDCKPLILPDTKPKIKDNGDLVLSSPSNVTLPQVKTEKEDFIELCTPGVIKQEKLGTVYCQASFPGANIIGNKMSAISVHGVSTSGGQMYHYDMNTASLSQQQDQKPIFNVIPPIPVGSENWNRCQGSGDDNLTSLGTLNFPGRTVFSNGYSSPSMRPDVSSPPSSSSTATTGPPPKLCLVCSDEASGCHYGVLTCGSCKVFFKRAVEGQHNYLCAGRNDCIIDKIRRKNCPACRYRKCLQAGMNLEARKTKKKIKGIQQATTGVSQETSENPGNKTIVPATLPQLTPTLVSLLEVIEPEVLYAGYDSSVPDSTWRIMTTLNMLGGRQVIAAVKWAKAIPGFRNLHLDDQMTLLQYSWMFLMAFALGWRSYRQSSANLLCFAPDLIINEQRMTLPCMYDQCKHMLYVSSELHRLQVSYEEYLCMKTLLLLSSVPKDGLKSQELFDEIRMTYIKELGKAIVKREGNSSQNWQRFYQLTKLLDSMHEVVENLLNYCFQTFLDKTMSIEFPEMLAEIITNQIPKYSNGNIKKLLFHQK

In data set [3] the target is T3, Androgen receptor (Homo sapiens, UniProt P10275).
T3 sequence (P10275 whole entry): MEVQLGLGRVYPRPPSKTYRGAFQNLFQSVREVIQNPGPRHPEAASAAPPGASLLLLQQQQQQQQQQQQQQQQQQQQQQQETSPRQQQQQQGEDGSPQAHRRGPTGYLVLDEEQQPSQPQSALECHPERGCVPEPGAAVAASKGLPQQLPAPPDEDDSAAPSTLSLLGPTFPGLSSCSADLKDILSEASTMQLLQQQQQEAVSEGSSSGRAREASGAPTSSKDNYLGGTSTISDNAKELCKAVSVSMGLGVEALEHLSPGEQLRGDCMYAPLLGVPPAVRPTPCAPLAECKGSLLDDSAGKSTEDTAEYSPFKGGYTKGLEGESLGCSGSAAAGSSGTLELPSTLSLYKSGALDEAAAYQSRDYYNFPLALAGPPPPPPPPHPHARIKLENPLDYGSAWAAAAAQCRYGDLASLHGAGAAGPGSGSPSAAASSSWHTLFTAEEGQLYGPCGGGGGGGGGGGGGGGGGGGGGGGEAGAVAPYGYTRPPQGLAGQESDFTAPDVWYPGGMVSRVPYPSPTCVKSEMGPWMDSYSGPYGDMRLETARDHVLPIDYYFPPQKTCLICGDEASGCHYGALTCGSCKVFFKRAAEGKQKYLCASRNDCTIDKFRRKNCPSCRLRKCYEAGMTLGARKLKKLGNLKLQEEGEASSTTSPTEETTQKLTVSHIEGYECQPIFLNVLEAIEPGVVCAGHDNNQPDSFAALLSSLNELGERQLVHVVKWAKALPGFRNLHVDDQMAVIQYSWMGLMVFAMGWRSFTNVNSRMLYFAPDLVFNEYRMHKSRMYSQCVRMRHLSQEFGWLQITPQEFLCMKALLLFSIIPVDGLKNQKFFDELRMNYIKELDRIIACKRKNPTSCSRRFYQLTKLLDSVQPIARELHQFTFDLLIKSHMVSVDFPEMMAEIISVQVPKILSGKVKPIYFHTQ

In data set [4] the target is T4, Glucocorticoid receptor (Homo sapiens) (UniProt P04150).
T4 sequence (whole entry): T2 sequence (P04150 whole entry)
The settings on record: Huh-7.

The nature of data set [5]: Half life period of the compound in rat hepatocytes was determined. The format is ADME, cell-based, Liver, Hepatocyte.
The nature of data set [6]: Half life period of the compound in rat liver microsomes was determined. The format is ADME, Microsome. (Liver microsomes are vesicles of endoplasmic reticulum, rich in cytochrome P450 enzymes.)

SMILES strings stand for the structures. Calls of active or inactive are those of the source. No cut-off for these calls is given here.

Usually IC50 stands for the concentration at which inhibition is half-maximal. The low end stands for greater potency in that assay, the high end for weaker potency in that assay. As to `Cc1c(NS(C)(=O)=O)cccc1N(Cc1ccc(Oc2ccc(Cl)c(OCC(=O)O)c2)cc1)Cc1ccc(F)cc1F`, the IC50 in data set [1] worked out at 1.9 nM; in data set [2] it was 2.6 nM; in data set [3], 3600 nM. Also, the Agonistic activity result in data set [4] is “inactive”.
For the molecule `Cc1c(NS(C)(=O)=O)cccc1N(Cc1ccccc1)Cc1ccc(Oc2cccc(OCCCC(=O)NCCCC(=O)O)c2)cc1`, the IC50 worked out at 1 nM in data set [1] and 1600 nM in data set [3]. Besides, in data set [4], the Agonistic activity entry was “inactive”.
One may read the half-life as how long it takes for the measured level to halve. A lower half-life goes with rapid decline. Regarding `CC#C[C@]1(O)CC[C@H]2[C@@H]3CCC4=CC(=O)CC[C@]4(Cc4ccc(C)cc4)C3=CC[C@@]21C`, the IC50 turned out to be 2.4 nM in data set [1], 2.4 nM in data set [2] and 6500 nM in data set [3]. For the same molecule, the results for the half-life in data set [5] and in data set [6] were less than 0.2 h and 0.33 h, respectively.
For the molecule `Cc1c(NS(C)(=O)=O)cccc1N(Cc1ccc(Oc2ccc(F)c(OCC(=O)O)c2)cc1)Cc1ccc(F)cc1F`, the 50% inhibitory concentration (IC50) in data set [1] was found to be 0.2 nM; in data set [2] it was 4.8 nM. For the same molecule, the half-life is 6.5 h in data set [5] and 4.1 h in data set [6]. Further, the Agonistic activity entry in data set [4] is “inactive”.
In the case of `Cc1c(NS(C)(=O)=O)cccc1N(Cc1ccccc1)Cc1ccc(Oc2ccc(OCC(=O)O)cc2)cc1`, the IC50 was 2.1 nM in data set [1] and 11700 nM in data set [3]. The half-life in data set [5] was 9.9 h; in data set [6], 4.6 h.

The record behind these values is ChEMBL document CHEMBL1141148, “Antidiabetic activity of passive nonsteroidal glucocorticoid receptor modulators” (J Med Chem, 2005).
